# US6087334A, “Anti-diabetic peptides” (Amylin Pharmaceuticals, Inc., priority 1998, dated 2000)
# Where a SMILES comes first, the peptide text is derived from it. Bridges are numbered along the chain shown (N, C = ends).
# What was measured:
# [1] = target: T1, C1a receptor (C1a-type calcitonin receptor) (Rattus norvegicus, UniProt P32214); test: C1a/293 competitive binding, displacement of [125I]-human calcitonin (Example C); details: HEK293 plasma membranes (C1a/293), [125I]-human calcitonin 20 pM
# T1 construct: expressed in transfected cells
# T1 sequence (P32214 25-479 isoform P32214-2 limits assumed): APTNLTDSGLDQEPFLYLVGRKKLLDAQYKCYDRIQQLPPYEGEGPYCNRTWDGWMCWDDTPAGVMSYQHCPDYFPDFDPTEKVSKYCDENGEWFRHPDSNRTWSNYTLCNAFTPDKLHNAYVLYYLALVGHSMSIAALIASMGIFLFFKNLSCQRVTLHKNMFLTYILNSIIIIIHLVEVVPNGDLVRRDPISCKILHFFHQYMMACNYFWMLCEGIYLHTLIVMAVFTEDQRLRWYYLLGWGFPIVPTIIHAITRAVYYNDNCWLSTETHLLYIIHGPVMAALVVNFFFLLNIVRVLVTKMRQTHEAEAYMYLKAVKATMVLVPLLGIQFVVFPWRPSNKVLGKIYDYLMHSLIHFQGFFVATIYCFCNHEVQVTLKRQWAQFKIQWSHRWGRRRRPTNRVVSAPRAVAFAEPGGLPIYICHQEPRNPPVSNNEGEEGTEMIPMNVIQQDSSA
# Description: Peptide compounds of the present invention may be evaluated for binding to the C1a receptor using the procedures described in Example C. The C1a receptor is the predominant mammalian calcitonin receptor subtype. C1a pcDNA construction and transfection were carried out as previously described (Albrandt et al. 1993, FEBS Letters, 325:225-232). HEK293 cell lines showing stable expression of the rat C1a-type calcitonin receptor (C1a/293) or the human C1a-type calcitonin receptor (1154/293) were selected by G418 resistance and limiting dilution culture methods. Plasma membranes were collected from homogenized HEK293 cells and used in the receptor binding assay. Individual test peptides at concentrations spanning 6 log units starting at around 10^-6 M were examined for their ability to displace [^125 I]-human calcitonin from the plasma membrane preparation using a 96-well microtiter plate format and scintillation counting with a Wallac LKB Beta plate counter. Competitive binding curves were constructed. Non-specific binding was measured in the presence of 100 nM calcitonin. Peptide potencies (IC50 's for competitive binding) were calculated by non-linear regression using Prism™ (version 2.01, GraphPAD Software, San Diego, Calif.).
# C1a/293 Competitive Binding Studies:
# Compounds were evaluated for competition in binding to the C1a receptor as follows:
# (§1) Reference peptides used in these studies were purchased from Bachem (Torrance, Calif.). All other chemicals were of the highest commercial grade. [^35 S]-GTPγS was purchased from NEN Life Science Products, Inc., Pittsburgh, Pa. [^125 I]-human calcitonin was purchased from Amersham Pharmacia Biotech, Inc., Piscataway, N.J.
# (§2) Methods for C1a pcDNA construction and transfection have been previously described (Albrandt, et al. 1993). HEK293 cell lines stably expressing the rat C1a-type calcitonin receptor (C1a/293) or the human C1a-type calcitonin receptor (1154/293) were selected by G418 resistance and limiting dilution culture methods.
# (§3) Confluent cells were detached from tissue culture flasks by incubation with 5 mM EDTA in PBS. Cells were homogenized in ice-cold 20 mM HEPES, pH 7.4 with a Polytron homogenizer. Plasma membranes were collected using three cycles of washing in fresh buffer followed by centrifugation for 15 minutes at 48,000×g. The final membrane pellet was resuspended in 20 mM HEPES buffer containing 0.2 mM phenylmethylsulfonyl fluoride (PMSF) and stored at -70° C.
# Assay buffer contained 5 μg/mL bestatin, 1 μg/mL phosphoramidon, 1 mg/mL bovine serum albumin (fraction V), 1 mg/mL bacitracin, 1 mM MgCl2, and 20 mM HEPES, pH 7.4. Membranes (2-5 μg membrane protein/well), [^125 I]-human calcitonin (20 pM), and peptides were combined in 200 μL buffer in 96-well microtiter plates. After a 60 minute incubation at room temperature, well contents were harvested onto polyethyleneimine-treated GF/B glass fiber pads using a Tomtec Mach II plate harvestor (Hamden, Conn.). Dried pads were combined with scintillant and counted on a Wallac LKB Beta Plate scintillation counter (Gaithersburg, Md.). For competitive binding curves, samples were run in duplicate over a 6 log concentration range starting at 10^-6 or 10^-7 M. Non-specific binding was measured in the presence of 100 nM human calcitonin.
# [2] = target: T1, C1a receptor (C1a-type calcitonin receptor); test: biochemical; details: HEK293 plasma membranes, [35S]-GTPγS 200 pM; read-out: ED50 (nM) Example B (C1a GTPγS)
# From the text: Peptide compounds of the present invention may be evaluated for agonist activity using the procedures described in Example B. The plasma membrane preparation of a 7-transmembrane-G-protein coupled receptor (GPCR) contains not only the receptor but also the G-proteins which constitute the first step in the intracellular signal transduction process when the receptor is activated by an agonist ligand. […] Agonist activation of a GPCR is accompanied by displacement of GDP by GTP from this site. Thus, measurement of the binding of a radiolabelled ligand, namely [^35 S]-GTPγS, for this binding site constitutes a measure of agonist potency for a given ligand. For agonism at the C1a receptor, a similar membrane preparation to that described below for the C1a binding studies is used. C1a pcDNA construction and transfection were carried out as previously described (Albrandt et al. 1993, FEBS Letters, 325:225-232). HEK293 cell lines showing stable expression of the rat C1a-type calcitonin receptor (C1a/293) or the human C1a-type calcitonin receptor (1154/293) were selected by G418 resistance and limiting dilution culture methods. Plasma membranes were collected from homogenized HEK293 cells and used in the [^35 S]-GTPγS assay. Individual test peptides at concentrations spanning 6 log units starting at around […] were examined for their ability to bind [^35 S]-GTPγS. Maximum agonist-specific binding was measured in the presence of 1 μM human calcitonin, constitutive binding was measured in the presence of buffer alone. Peptide potencies (EC50 's for concentration response curves) were calculated by non-linear regression using Prism™ (version 2.01, GraphPAD Software, San Diego, Calif.).
# [^35 S]-GTPγS C1a Agonist Studies
# Evaluation of the agonist activity of compounds versus the C1a receptor was carried out as follows:
# as §1
# as §2, with “1993, FEBS Letters, 325:225-232).” for “1993).”
# as §3
# Assay buffer contained 1 μM GDP, 1 mM EDTA, 5 mM MgCl2, 20 mM Hepes, and 150 mM NaCl, pH 7.4. Membranes (7.5 μg membrane protein/well), [^35 S]-GTPγS (200 pM), and peptides were combined in 200 μL buffer in 96-well microtiter plates. After a 75 minute incubation at room temperature, well contents were harvested onto GF/B glass fiber pads using a Tomtec Mach II plate harvestor (Hamden, Conn.). Dried pads were combined with scintillant and counted on a Wallac LKB Beta Plate scintillation counter. For concentration response curves, samples were run in duplicate over a 6 log concentration range starting at 10^-6 M or 10^-7 M. Maximum agonist-specific binding was measured in the presence of 1 μM human calcitonin, constitutive binding was measured in the presence of buffer alone.
# Peptide potencies (1C50 's for competitive binding, and EC50 's for concentration response curves) were calculated by non-linear regression using Prism (version 2.01, GraphPAD Software, San Diego, Calif.).
compound,measurement,setting,value
CC(C)C[C@H](NC(=O)[C@H](CCCNC(=N)N)NC(=O)[C@H](CCC(N)=O)NC(=O)[C@@H](NC(=O)[C@H](C)NC(=O)[C@@H]1CSSC[C@H](NC(=O)[C@@H](N)CCCCN)C(=O)N[C@@H](CC(N)=O)C(=O)N[C@@H]([C@@H](C)O)C(=O)N[C@@H](C)C(=O)N[C@@H]([C@@H](C)O)C(=O)N1)[C@@H](C)O)C(=O)N[C@@H](C)C(=O)N[C@@H](CC(N)=O)C(=O)N[C@@H](Cc1ccccc1)C(=O)N[C@@H](CC(C)C)C(=O)N[C@H](C(=O)N[C@@H](C)C(=O)N[C@@H](CO)C(=O)N[C@@H](CO)C(=O)NCC(=O)N[C@@H](Cc1ccc(O)cc1)C(N)=O)C(C)C [Example 12] (H-KCNTATCATQRLANFLVASSGY-NH2; disulfide 2-7),IC50,[1],10 nM
same,EC50,[2],8 nM
CC(C)C[C@H](NC(=O)[C@H](CCCNC(=N)N)NC(=O)[C@H](CCC(N)=O)NC(=O)[C@@H](NC(=O)[C@H](C)NC(=O)[C@@H]1CSSC[C@H](N)C(=O)N[C@@H](CC(N)=O)C(=O)N[C@@H]([C@@H](C)O)C(=O)N[C@@H](C)C(=O)N[C@@H]([C@@H](C)O)C(=O)N1)[C@@H](C)O)C(=O)N[C@@H](C)C(=O)N[C@@H](CC(N)=O)C(=O)N[C@@H](Cc1ccccc1)C(=O)N[C@@H](CC(C)C)C(=O)N[C@H](C(=O)N[C@@H](CCCNC(=N)N)C(=O)N[C@@H](CO)C(=O)N[C@@H](CO)C(=O)NCC(=O)N[C@@H](Cc1ccc(O)cc1)C(N)=O)C(C)C [Example 13] (H-CNTATCATQRLANFLVRSSGY-NH2; disulfide 1-6),IC50,[1],12 nM
same,EC50,[2],19 nM
CC(C)C[C@H](NC(=O)[C@H](CCCNC(=N)N)NC(=O)[C@H](CCC(N)=O)NC(=O)[C@@H](NC(=O)[C@H](C)NC(=O)[C@@H]1CSSC[C@H](NC(=O)[C@@H](N)CCCCN)C(=O)N[C@@H](CC(N)=O)C(=O)N[C@@H]([C@@H](C)O)C(=O)N[C@@H](C)C(=O)N[C@@H]([C@@H](C)O)C(=O)N1)[C@@H](C)O)C(=O)N[C@@H](C)C(=O)N[C@@H](CC(N)=O)C(=O)N[C@@H](Cc1ccccc1)C(=O)N[C@@H](CC(C)C)C(=O)N[C@H](C(=O)N[C@@H](CCCNC(=N)N)C(=O)N[C@@H](CO)C(=O)N[C@@H](CO)C(=O)NCC(=O)N[C@@H](Cc1ccc(O)cc1)C(N)=O)C(C)C [Example 14] (H-KCNTATCATQRLANFLVRSSGY-NH2; disulfide 2-7),IC50,[1],18 nM
same,EC50,[2],90 nM
CC(C)C[C@H](NC(=O)[C@H](CCCNC(=N)N)NC(=O)[C@H](CCC(N)=O)NC(=O)[C@@H](NC(=O)[C@H](C)NC(=O)[C@@H]1CSSC[C@H](NC(=O)[C@@H](N)CCCCN)C(=O)N[C@@H](CC(N)=O)C(=O)N[C@@H]([C@@H](C)O)C(=O)N[C@@H](C)C(=O)N[C@@H]([C@@H](C)O)C(=O)N1)[C@@H](C)O)C(=O)N[C@@H](C)C(=O)N[C@@H](CC(N)=O)C(=O)N[C@@H](Cc1ccccc1)C(=O)N[C@@H](CC(C)C)C(=O)N[C@H](C(=O)N[C@@H](CCCNC(=N)N)C(=O)N[C@@H](CO)C(=O)N[C@@H](C)C(=O)NCC(=O)N[C@@H](Cc1ccc(O)cc1)C(N)=O)C(C)C [Example 15] (H-KCNTATCATQRLANFLVRSAGY-NH2; disulfide 2-7),IC50,[1],18 nM
same,EC50,[2],21 nM
CC(C)C[C@H](NC(=O)[C@H](Cc1ccccc1)NC(=O)[C@H](CC(N)=O)NC(=O)[C@H](C)NC(=O)[C@H](CC(C)C)NC(=O)[C@H](CCCNC(=N)N)NC(=O)[C@H](CCC(N)=O)NC(=O)[C@@H](NC(=O)[C@H](C)NC(=O)[C@@H]1CSSC[C@H](NC(=O)[C@@H](N)CCCCN)C(=O)N[C@@H](CC(N)=O)C(=O)N[C@@H]([C@@H](C)O)C(=O)N[C@@H](C)C(=O)N[C@@H]([C@@H](C)O)C(=O)N1)[C@@H](C)O)C(=O)N[C@@H](C)C(=O)N[C@@H](CCCNC(=N)N)C(=O)N[C@@H](CO)C(=O)N[C@@H](CO)C(=O)NCC(=O)N[C@@H](Cc1ccc(O)cc1)C(N)=O [Example 16] (H-KCNTATCATQRLANFLARSSGY-NH2; disulfide 2-7),IC50,[1],20 nM
same,EC50,[2],1.4 nM
